The subject of one data set is Homo sapiens. Briefly: (§1) Pharmacokinetic parameters for Bicalutamide following single oral administration of Bicalutamide tablets to 30 healthy male subjects and 40 patients with prostrate cancer. The class given is ADME, organism-based. Also noted: route oral. The settings on record: in vivo, po, dosed compound id 25, dosed compound name BICALUTAMIDE, gender male, regimen Single dose, tissue Plasma.

The nature of data set [1]: as §1. The class given is ADME, organism-based. Also on record: route oral. Conditions: human, in vivo, dosed compound id 25, dosed compound name BICALUTAMIDE, gender male, regimen Single dose, tissue Plasma.

Regarding `CC(O)(CS(=O)(=O)c1ccc(F)cc1)C(=O)Nc1ccc(C#N)c(C(F)(F)F)c1` (stereo not given) [BICALUTAMIDE], in the data set on Homo sapiens, the Css came to 8939 ng/mL. The compound also returned a peak concentration (Cmax) in data set [1] (po) of 768 ng/mL. Further, in data set [1] (route oral), the CL/F was 5.33 mL/min, the Tmax turned out to be 31.3 h and the half-life was 139 h.

These data come from ChEMBL document CHEMBL3832048, “DailyMed|setid=020d34eb-9560-4218-9d87-dfdeff705c3a | BICALUTAMIDE - bicalutamide tablet, film coated|Physicians Total Care, Inc”.
